Results on 21 compounds are retold here after patent publication US9624170B2, “4-(piperrazin-1-yl)-pyrrolidin-2-one compounds as monoacylglycerol lipase (MAGL) inhibitors” (TAKEDA PHARMACEUTICAL COMPANY LIMITED, priority 2013, dated 2017).

The inhibition is the relative decrease from the control value, in per cent.

The first assay has as its target T1, human MAGL (His-hMAGL) (Homo sapiens, UniProt Q99685).
T1 construct: made in house; host or cells: Escherichia coli BL21(DE3)
T1 sequence (Q99685 1-303): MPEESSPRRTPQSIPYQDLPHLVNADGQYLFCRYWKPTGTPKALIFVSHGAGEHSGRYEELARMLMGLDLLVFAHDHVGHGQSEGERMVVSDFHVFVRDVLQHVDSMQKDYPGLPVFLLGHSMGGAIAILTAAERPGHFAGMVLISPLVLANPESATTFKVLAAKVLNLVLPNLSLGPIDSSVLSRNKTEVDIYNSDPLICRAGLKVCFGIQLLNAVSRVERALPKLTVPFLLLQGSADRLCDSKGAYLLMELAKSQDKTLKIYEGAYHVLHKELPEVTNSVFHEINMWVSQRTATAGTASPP
Briefly: Measurement of MAGL inhibitory activity by absorbance. It counts as biochemical. The conditions noted are these: 10 μM test compound; substrate p-nitrophenyl acetate, absorbance at 405 nm. From the text: (1) Cloning of Human MGLL Encoding MAGL Protein and Construction of Expression Plasmid
Human MGLL cDNA was obtained by PCR using human ORF Clone (DNAForm; Clone ID: 100004585) as a template. For PCR, two kinds of primers: […]
The obtained PCR product was digested with Bam HI and Not I (Takara Bio Inc.), inserted into the Bam HI/Not I site of pET21HH(V) (pET21a (Novagen) inserted with His x6 and TEV Protease recognition sequence) by using Ligation High (Toyobo Co., Ltd.), and introduced into ECOS™ JM109 (Nippon Gene Co., Ltd.), whereby expression plasmid pET21HH(V)/His-hMGLLv2 for Escherichia coli was constructed. (2) Preparation of Recombinant Polyhistidine Tagged Human MAGL Protein
Recombinant His-hMAGL protein was prepared by transforming ECOS™ Competent E. coli BL21(DE3) (Nippon Gene Co., Ltd.) with the pET21HH(V)/His-hMGLLv2 plasmid prepared above. Escherichia coli obtained by transformation was inoculated to 10 mL of LB medium (1% peptone, 0.5% yeast extract, 0.5% sodium chloride, 0.01% ampicillin), and cultured at 30° C. for 16 hr. […] When the turbidity of the culture medium reached about 500 Klett unit, the culture temperature was lowered to 16° C., isopropyl-β-D-thiogalactopyranoside (IPTG) was added to a final concentration of 1 mM, and the mixture was further cultured for 19 hr. After the completion of culture, the culture medium was centrifuged (4° C., 6,000 rpm, 10 min) to give His-hMAGL expression Escherichia coli. Then, His-hMAGL expression Escherichia coli was suspended in 50 mM Tris-HCl (pH 8.0, 100 ml) containing 1% Triton X-100, 20 mM imidazole, 3 mM DTT, 5 U/mL Benzonase (Merck) and 150 mM NaCl, sufficiently cooled, and subjected to sonication at […]=60%, 15 sec/ON, 30 sec/OFF for 3 min using ¾″ solid type crushed horn of BRANSON Digital Sonifier 450 (Central Scientific Commerce, Inc.). Furthermore, the homogenate was centrifuged (4° C., 15,000 rpm, 15 min) and the supernatant was obtained. As the purification apparatus, AKTA explorer 10s (GE Healthcare Japan Corporation) was used at 4° C. To the obtained supernatant was added 5M NaCl to the final salt concentration of 0.3 M, and the mixture was flown through and adsorbed to 5 mL of Ni-NTA Superflow Cartridges (QIAGEN) equilibrated in advance with buffer A (50 mM Tris-HCl (pH 8.0) containing 0.05% TritonX-100, 1 mM DTT, 300 mM NaCl). The column was sufficiently washed with buffer A containing 20 mM imidazole and His-hMAGL was eluted with buffer A containing imidazole at a final concentration of 250 mM. The eluate was further subjected to gel filtration using HiLoad 26/600 Superdex 200 pg (GE Healthcare Japan Corporation) equilibrated with 50 mM Tris-HCl pH 8.0 containing 10% glycerol, 0.05% TritonX-100, 1 mM DTT, 150 mM NaCl. The eluted fraction was concentrated by Amicon Ultra-15 10K (Merck Millipore) to give purified His-hMAGL protein. The protein concentration was measured by BCA Protein Assay Kit (Thermo Fisher Scientific) using BSA as the standard.
(3) Measurement of MAGL Inhibitory Activity
His-hMAGL obtained above was diluted with enzyme reaction buffer (10 mM Tris-HCl, pH 7.5, 1 mM EDTA, 0.1 (w/v) % Triton X-100) to a concentration of 60 ng/mL. […] Thereafter, to each well was added 750 μM p-nitrophenyl acetate (Wako Pure Chemical Industries, Ltd.) by 5 μL, and the absorbance at 405 nm was measured every 2 minutes up to 10 minutes by EnVision (PerkinElmer). The amount of change was obtained by subtracting the absorbance measured immediately after the start of the reaction from the absorbance measured 10 min after the start of the reaction.
MAGL inhibitory rate (%) was calculated according to the following calculation formula. (1−(absorbance change amount of test compound addition group−absorbance change amount of enzyme addition-free group)[…](absorbance change amount of test compound addition-free group−absorbance change amount of enzyme addition-free group))×100
As for `O=C(c1nccs1)N1CCN(C2CC(=O)N(c3cccc(I)c3)C2)CC1` (stereo not drawn) [Example 75, 1-(3-iodophenyl)-4-(4-(1,3-thiazol-2-ylcarbonyl)piperazin-1-yl)pyrrolidin-2-one], the inhibition at 10 µM was found to be 95%. On to `O=C(c1nccs1)N1CCN(C2CC(=O)N(c3cccc(-c4ccccn4)c3)C2)CC1` (stereo not drawn) [Example 64, 1-(3-(pyridin-2-yl)phenyl)-4-(4-(1,3-thiazol-2-ylcarbonyl)piperazin-1-yl)pyrrolidin-2-one], for which the inhibition at 10 µM amounted to 90%.

For another assay, the target named is T1, human MAGL (His-hMAGL). Briefly: Measurement of MAGL inhibitory activity by mass spectrometry. Conditions: 10 μM test compound; substrate 2-arachidonylglycerol, arachidonic acid by RapidFire-mass spectrometry. It counts as biochemical. The method in brief: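 His-tagged human MAGL was reacted with 150 μM 2-arachidonylglycerol substrate (stock, added by 5 μL) for 10 min at room temperature, then stopped with formic acid. Arachidonic acid product was quantified by RapidFire–triple-quadrupole MS in negative SRM mode, corrected by arachidonic acid-d8, and converted to percent inhibition.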
In the case of `CCn1nccc1-c1cccc(N2CC(N3CCN(C(=O)c4nccs4)CC3)CC2=O)c1` (stereo not drawn) [Example 156, 1-(3-(1-ethyl-1H-pyrazol-5-yl)phenyl)-4-(4-(1,3-thiazol-2-ylcarbonyl)piperazin-1-yl)pyrrolidin-2-one], the inhibition at 10 µM amounted to 100%.

Regarding `CS(=O)(=O)Nc1cccc(-c2cccc(N3CC(N4CCN(C(=O)c5nccs5)CC4)CC3=O)c2)c1` (stereo not drawn) [Example 100, N-(3′-(2-oxo-4-(4-(1,3-thiazol-2-ylcarbonyl)piperazin-1-yl)pyrrolidin-1-yl)biphenyl-3-yl)methanesulfonamide], the inhibition at 10 µM came out at 101%.

Turning to `O=C(c1nccs1)N1CCN(C2CC(=O)N(c3cccc(-c4ccoc4)c3)C2)CC1` (stereo not drawn) [Example 96, 1-(3-(3-furyl)phenyl)-4-(4-(1,3-thiazol-2-ylcarbonyl)piperazin-1-yl)pyrrolidin-2-one], the inhibition at 10 µM stood at 99%.

On to `Cc1cnccc1-c1ccc(N2CC(N3CCN(C(=O)c4nccs4)CC3)CC2=O)cc1` (stereo not drawn) [Example 178, 1-(4-(3-methylpyridin-4-yl)phenyl)-4-(4-(1,3-thiazol-2-ylcarbonyl)piperazin-1-yl)pyrrolidin-2-one], for which the inhibition at 10 µM was determined as 81%. Still for that read-out and setting: then `Cc1ccnc(-c2cccc(N3CC(N4CCN(C(=O)c5nccs5)CC4)CC3=O)c2)c1` (stereo not drawn) [Example 152, 1-(3-(4-rnethylpyridin-2-yl)phenyl)-4-(4-(1,3-thiazol-2-ylcarbonyl)piperazin-1-yl)pyrrolidin-2-one], with 99%; and `O=C(c1nccs1)N1CCN(C2CC(=O)N(c3cccc(-c4cccs4)c3)C2)CC1` (stereo not drawn) [Example 93, 4-(4-(1,3-thiazol-2-ylcarbonyl)piperazin-1-yl)-1-(3-(2-thienyl)phenyl)pyrrolidin-2-one], with 101%. The same measure, in the same setting: next, `CC(=O)Nc1cccc(Nc2cccc(N3CC(N4CCN(C(=O)c5nccs5)CC4)CC3=O)c2)c1` (stereo not drawn) [Example 118, N-(3-((3-(2-oxo-4-(4-(1,3-thiazol-2-ylcarbonyl)piperazin-1-yl)pyrrolidin-1-yl)phenyl)amino)phenyl)acetamide]: 99%.

The same assay, now with this note: MAGL inhibitory rate, test compound 10 μM, His-hMAGL, substrate 2-arachidonylglycerol, RapidFire-mass spectrometry.
On to `O=C(c1nccs1)N1CCN(C2CC(=O)N(c3cccc(-c4nsc5ccccc45)c3)C2)CC1` (stereo not drawn) [Example 334, 1-(3-(1,2-benzothiazol-3-yl)phenyl)-4-(4-(1,3-thiazol-2-ylcarbonyl)piperazin-1-yl)pyrrolidin-2-one], for which the inhibition at 10 µM is 103%. The same measure, in the same setting: then `CC(C)(C)CC(=O)N1CCc2cc(N3CC(N4CCN(c5ncccn5)CC4)CC3=O)ccc21` (stereo not drawn) [Example 409, 1-(1-(3,3-dimethylbutanoyl)-2,3-dihydro-1H-indol-5-yl)-4-(4-(pyrimidin-2-yl)piperazin-1-yl)pyrrolidin-2-one], with 94%; and `O=C(c1nccs1)N1CCN(C2CC(=O)N(c3ccc4c(c3)CCN4C(=O)C3CCOCC3)C2)CC1` (stereo not drawn) [Example 400, 1-(1-(tetrahydro-2H-pyran-4-ylcarbonyl)-2,3-dihydro-1H-indol-5-yl)-4-(4-(1,3-thiazol-2-ylcarbonyl)piperazin-1-yl)pyrrolidin-2-one], with 96%. Same read-out and setting: next, `O=C(c1nccs1)N1CCN(C2CC(=O)N(c3cccc(-c4ccccc4-c4ccccc4)c3)C2)CC1` (stereo not drawn) [Example 285, 1-(1,1′:2′,1″-terphenyl-3-yl)-4-(4-(1,3-thiazol-2-ylcarbonyl)piperazin-1-yl)pyrrolidin-2-one]: 101%.

For the compound `O=C(c1nccs1)N1CCN(C2CC(=O)N(c3cccc(-c4ccc(F)c(F)c4)c3)C2)CC1` (stereo not drawn) [Example 290, 1-(3′,4′-difluorophenyl-3-yl)-4-(4-(1,3-thiazol-2-ylcarbonyl)piperazin-1-yl)pyrrolidin-2-one], the inhibition at 10 µM is 101%.

Take `NC(=O)Cc1cccc(-c2cccc(N3CC(N4CCN(C(=O)c5nccs5)CC4)CC3=O)c2)c1` (stereo not drawn) [Example 319, 2-(3′-(2-oxo-4-(4-(1,3-thiazol-2-ylcarbonyl)piperazin-1-yl)pyrrolidin-1-yl)biphenyl-3-yl)acetamide]: the inhibition at 10 µM amounted to 102%. Still for that read-out and setting: then `O=C(c1nccs1)N1CCN(C2CC(=O)N(c3ccc4nc(-c5ccccc5)oc4c3)C2)CC1` (stereo not drawn) [Example 387, 1-(2-phenyl-1,3-benzoxazol-6-yl)-4-(4-(1,3-thiazol-2-ylcarbonyl)piperazin-1-yl)pyrrolidin-2-one], with 97%; and `Cc1cc(C#N)ccc1-c1cccc(N2CC(N3CCN(C(=O)c4nccs4)CC3)CC2=O)c1` (stereo not drawn) [Example 322, 2-methyl-3′-(2-oxo-4-(4-(1,3-thiazol-2-ylcarbonyl)piperazin-1-yl)pyrrolidin-1-yl)biphenyl-4-carbonitrile], with 103%; and `O=C(c1cscn1)N1CCN([C@@H]2CC(=O)N(c3ccc4c(ccn4-c4cccc(F)c4)c3)C2)CC1` [Example 422, (4R)-1-(1-(3-fluorophenyl)-1H-indol-5-yl)-4-(4-(1,3-thiazol-4-ylcarbonyl)piperazin-1-yl)pyrrolidin-2-one], with 99%. Same read-out and setting: then `O=C(c1cscn1)N1CCN([C@@H]2CC(=O)N(c3ccc4c(ccn4-c4ccc(C(F)(F)F)cn4)c3)C2)CC1` [Example 419, (4R)-4-(4-(1,3-Thiazol-4-ylcarbonyl)piperazin-1-yl)-1-(1-(5-(trifluoromethyl)pyridin-2-yl)-1H-indol-5-yl)pyrrolidin-2-one], with 96%.

On to `Cc1ccc(-c2ccc(N3CC(N4CCN(C(=O)c5nccs5)CC4)CC3=O)cc2)cc1` (stereo not drawn) [Example 219, 1-(4′-methylbiphenyl-4-yl)-4-(4-(1,3-thiazol-2-ylcarbonyl)piperazin-1-yl)pyrrolidin-2-one], for which the inhibition at 10 µM turned out to be 102%. The same measure, in the same setting: then `CC1C(N2CCN(C(=O)c3nccs3)CC2)CC(=O)N1c1ccc(Oc2ccccc2)cc1` (stereo not drawn) [Example 228, 5-Methyl-1-(4-phenoxyphenyl)-4-(4-(1,3-thiazol-2-ylcarbonyl)piperazin-1-yl)pyrrolidin-2-one], with 96%.
